Experimental data as given in patent publication US20220282304A1, “SAME-SAMPLE ANTIBIOTIC SUSCEPTIBILITY TEST AND RELATED COMPOSITIONS, METHODS AND SYSTEMS” (CALIFORNIA INSTITUTE OF TECHNOLOGY, priority 2021, published 2022).

Test system: Escherichia coli isolate B
Experiment: Same-sample filtration AST, replicate treated and concurrent reference conditions (Example 3), isolate B
Type: cell-based
Conditions: 1 μg/mL ETP, 60 minutes 37° C.
Method: Isolate A was susceptible to ertapenem, while isolate B was resistant. The inoculum was small enough that no detectable difference in the sample's optical density at 600 mm (OD600) was detectable before and after inoculation by an Ultrospec 10 spectrophotometer with an analytical sensitivity of 0.01 absorbance units. After an incubation at 37° C., the media became turbid with an OD600 of 0.5 absorbance units after about 2 hours of incubation.
To begin the AST protocol, 23.75 μL of the above 8 bacteria batch culture dilutions was twice added to and mixed with 1.25 μL of water containing either 20 μg/mL or 0 μg/mL of dissolved ertapenem (ETP) antibiotic. As a result, […] at 1 μg/mL were created, and 8 untreated reference conditions were created (see Table 2 below). The […] were incubated at 37° C. for 60 minutes.
After 60 minutes of incubation, the entire volume of each antibiotic exposure was transferred to an individual cellulose acetate filter unit with a 0.2 μm pore size. […]
50 μL of fresh MHB media was spun through the filters after the first centrifugation (above) to wash away residual extracellular nucleic acids present in the fluid wetting the filters. […] In this experiment, the wash fluid was collected and analyzed to learn more about the protocol, but this washing step is not necessary for determining susceptibility of the isolate. […]

In the case of `C[C@@H](O)[C@H]1C(=O)N2C(C(=O)O)=C(S[C@@H]3CN[C@H](C(=O)Nc4cccc(C(=O)O)c4)C3)[C@H](C)[C@H]12` [ETP, ertapenem], the “susceptibility call (threshold: reference mean + 2 SD of fraction extracellular)” value (alternative analysis) is reported as “resistant” and the “susceptibility call (t-test treated vs untreated percent extracellular)” value (ddPCR 23S rRNA) is reported as “resistant”.
